Data on 1 molecule can be found in patent US20240342138A1, “MICROTUBULE TARGETING AGENTS” (BPGbio, Inc., priority 2023, published 2024).

The experiment deals with A-172 cells. As to the kind of experiment: In vitro potency in glioblastoma cells, ATPlite 1Step (NTRC Oncolines). In kind it is cell-based. Conditions: Homo sapiens, FIG. 14A, read-out: In vitro potency (anti-cancer activity). An excerpt: FIG. 14A-14E show the efficacy of Compound 1 in glioblastoma cell lines in vitro and in a glioblastoma rat model (C6). A) In vitro potency of Compound 1 in four different glioblastoma cell lines as evaluated by Realtime-Glo™ assay (C6, and U87 cells) or ATPlite 1Step™ Perkin Elmer (performed by NTRC Oncolines; T98G and A-172 cells). B) Study design overview: C6 rat glioma cells (3×10^5) were implanted into the right entorhinal cortex/subiculum region of male Sprague Dawley rats and tumor burden was assessed 14 days post inoculation using MRI and animals randomized into […] (4) groups (vehicle control, 5 mg/kg, 10 mg/kg, and 20 mg/kg Compound 1) with 4 animals per group. […] C) Body weights were measured every two days. […]
Glioblastoma (GBM) is the most common and highly malignant form of primary brain tumor with a poor prognosis despite advances in treatments. […] Accordingly, the in vitro potency of Compound 1 was examined in four different glioblastoma cell lines as evaluated by Realtime-Glo™ assay (C6, and U87 cells) or ATPlite 1Step™ Perkin Elmer (performed by NTRC Oncolines; T98G and A-172 cells). […] Therefore, the in vivo tumor activity of Compound 1 was next assessed in Sprague Dawley rats implanted with C6 rat glioma cells into the right entorhinal cortex/subiculum region (AP: −7 mm; ML: 4.5 mm, DV: 5 mm). […]

For the molecule `COc1ccccc1-c1nc(CNC(=O)c2ccccc2OC(F)F)n[nH]1` [Compound 1, 2-(difluoromethoxy)-N-[[5-(2-methoxyphenyl)-1H-1,2,4-triazol-3-yl]methyl]benzamide], the IC50 was found to be 48 nM.
